Where two headings read alike, the source gives them in different places.
Assays:
[1] = target: Human MET (residues 956-1390) (Homo sapiens (Human), UniProt P08581); experiment: Human Met kinase assay, HTRF KinEase (Example D-2); type: biochemical; conditions: read-out: c-Met IC50
Outline: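 HTRF KinEase assay on MET residues 956-1390 (0.1 ng/well) in buffer with 5 mM MgCl2, 1 mM DTT and 1 mM MnCl2, with biotinylated peptide substrate, ATP at Km, 10 compound concentrations and 3% DMSO final, run 40 min at room temperature. The […] signal was normalized to DMSO and to 1 μM reference compound, and IC50 came from a 4-parameter logistic fit.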

[2] = target: Mer (phospho-Mer, MERTK-transfected 293A cells) (Homo sapiens (Human), UniProt Q12866); experiment: Mer autophosphorylation ELISA in transient transfected 293A cells (Example H); type: cell-based; conditions: cellular activity; Mer autophosphorylation ELISA in transient transfected 293A cells
Outline: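 MERTK-transfected 293A; 8-pt dose, 1 h, serum-free, 0.3% DMSO. Cold lysis with orthovanadate and protease/phosphatase inhibitors. Phospho-Mer by DuoSet IC ELISA vs phospho-Mer standard. IC50: 4-PL fit; DMSO = 100%, reference inhibitor = 0%.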

[3] = target: Human MER (residues 528-999) (Homo sapiens (Human), UniProt Q12866); experiment: Human Mer kinase assay, HTRF KinEase (Example C-2); type: biochemical
Outline: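 HTRF KinEase TK assay with MER 528-999 (1 ng/well) in enzymatic buffer plus 5 mM MgCl2 and 1 mM DTT, biotinylated peptide substrate and ATP at Km (40 μM), 3% DMSO final, 60 min at room temperature. Stopped with EDTA detection mix (SA-XL665, TK antibody-Eu3+), read at 665/620 nm after 60 min; IC50 from 10-point 4-parameter fit, normalized to DMSO and 1 μM reference.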

[4] = target: Human KDR (residues 790-1356) (Homo sapiens (Human), UniProt P35968); experiment: Human KDR kinase assay, HTRF KinEase (Example B-2); type: biochemical
Outline: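 Ten compound concentrations (3% DMSO final) were pre-plated, then KDR (790-1356) with biotinylated peptide in Mg/Mn/DTT buffer was added; ATP at Km (4.0 μM) started a 40 min room-temperature reaction. Detection used Eu-TK antibody and SA-XL665 in EDTA buffer; activity normalized to DMSO and reference inhibitor, IC50 by logistic fit.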

[5] = target: Met (phospho-Met, HGF-stimulated PC-3 prostate cancer cells) (Homo sapiens (Human), UniProt P08581); experiment: Met autophosphorylation ELISA in PC-3 cells (Example F); type: cell-based; conditions: cellular activity; Met autophosphorylation ELISA in PC-3 cells; read-out: c-Met IC50
Outline: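 IC50 values derive from a 4-parameter logistic fit of phospho-Met (panTyr) sandwich ELISA signals in PC-3 lysates, scaled between DMSO and reference-inhibitor wells. Cells, starved 3 h in serum-free medium, had 1 h compound exposure (8 doses, 0.3% DMSO) before 10 min stimulation with 100 ng/mL HGF.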

[6] = target: KDR (phospho-KDR, VEGF165-stimulated HUVEC cells) (Homo sapiens (Human), UniProt P35968); experiment: KDR autophosphorylation ELISA in HUVEC cells (Example G); type: cell-based; conditions: cellular activity; KDR autophosphorylation ELISA in HUVEC cells
Outline: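 Inhibition of VEGF165-driven KDR autophosphorylation is measured in primary human umbilical vein endothelial cells after 24 h serum deprivation. Compound preincubation lasts 1 h before a 5-minute challenge with 100 ng/mL ligand, and phosphorylated receptor is then measured by ELISA in the lysates.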

[7] = protocol of Example D-2 (other compounds)
[8] = protocol of Example C-2 (other compounds)
[9] = protocol of Example B-2 (other compounds)

Chain of Met (phospho-Met, HGF-stimulated PC-3 prostate cancer cells) (P08581 25-1390): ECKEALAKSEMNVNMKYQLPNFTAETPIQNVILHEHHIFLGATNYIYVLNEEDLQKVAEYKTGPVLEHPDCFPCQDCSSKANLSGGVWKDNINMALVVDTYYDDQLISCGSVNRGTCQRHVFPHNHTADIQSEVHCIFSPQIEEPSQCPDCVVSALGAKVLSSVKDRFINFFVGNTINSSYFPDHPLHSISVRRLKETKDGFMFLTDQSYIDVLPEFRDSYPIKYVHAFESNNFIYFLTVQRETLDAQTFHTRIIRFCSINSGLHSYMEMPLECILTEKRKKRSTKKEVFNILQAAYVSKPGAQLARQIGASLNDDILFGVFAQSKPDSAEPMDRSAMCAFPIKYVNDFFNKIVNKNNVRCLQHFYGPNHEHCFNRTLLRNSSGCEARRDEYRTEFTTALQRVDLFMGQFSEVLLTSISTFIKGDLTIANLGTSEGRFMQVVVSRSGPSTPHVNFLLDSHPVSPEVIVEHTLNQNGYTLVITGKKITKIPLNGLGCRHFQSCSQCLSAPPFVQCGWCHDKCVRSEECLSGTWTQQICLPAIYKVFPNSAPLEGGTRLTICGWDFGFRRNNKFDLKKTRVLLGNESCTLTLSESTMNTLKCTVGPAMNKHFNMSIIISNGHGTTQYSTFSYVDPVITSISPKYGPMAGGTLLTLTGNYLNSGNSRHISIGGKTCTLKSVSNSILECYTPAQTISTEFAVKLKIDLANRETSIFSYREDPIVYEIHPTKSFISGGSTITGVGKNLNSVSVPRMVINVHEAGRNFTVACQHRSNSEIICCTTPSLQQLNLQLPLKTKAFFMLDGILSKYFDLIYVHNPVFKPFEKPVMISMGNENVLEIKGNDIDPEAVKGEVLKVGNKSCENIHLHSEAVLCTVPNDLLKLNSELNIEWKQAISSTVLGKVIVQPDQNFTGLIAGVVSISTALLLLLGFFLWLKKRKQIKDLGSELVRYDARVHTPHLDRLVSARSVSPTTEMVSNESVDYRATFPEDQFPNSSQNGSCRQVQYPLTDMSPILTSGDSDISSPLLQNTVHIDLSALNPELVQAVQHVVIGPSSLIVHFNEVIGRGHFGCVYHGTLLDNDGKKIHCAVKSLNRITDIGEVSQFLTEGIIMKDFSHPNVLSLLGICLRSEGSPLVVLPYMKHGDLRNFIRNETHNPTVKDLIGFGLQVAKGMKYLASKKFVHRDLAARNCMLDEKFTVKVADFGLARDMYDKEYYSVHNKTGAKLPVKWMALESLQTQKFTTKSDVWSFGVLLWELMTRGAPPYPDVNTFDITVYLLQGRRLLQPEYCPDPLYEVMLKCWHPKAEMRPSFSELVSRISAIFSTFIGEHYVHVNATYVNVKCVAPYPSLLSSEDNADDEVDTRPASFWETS
Chain of Human MET (residues 956-1390) (P08581 956-1390): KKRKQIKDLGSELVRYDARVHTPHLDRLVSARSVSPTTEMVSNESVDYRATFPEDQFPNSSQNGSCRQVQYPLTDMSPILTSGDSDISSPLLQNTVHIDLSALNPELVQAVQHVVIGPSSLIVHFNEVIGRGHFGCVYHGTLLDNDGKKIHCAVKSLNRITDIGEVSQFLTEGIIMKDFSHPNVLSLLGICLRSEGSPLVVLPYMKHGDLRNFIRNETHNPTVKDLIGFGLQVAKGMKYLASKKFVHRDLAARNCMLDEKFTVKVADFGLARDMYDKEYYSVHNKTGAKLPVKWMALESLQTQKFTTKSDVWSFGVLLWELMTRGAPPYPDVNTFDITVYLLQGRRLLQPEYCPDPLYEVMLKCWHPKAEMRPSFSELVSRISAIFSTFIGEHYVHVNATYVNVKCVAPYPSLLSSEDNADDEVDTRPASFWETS
Chain of Human MER (residues 528-999) (Q12866 528-999): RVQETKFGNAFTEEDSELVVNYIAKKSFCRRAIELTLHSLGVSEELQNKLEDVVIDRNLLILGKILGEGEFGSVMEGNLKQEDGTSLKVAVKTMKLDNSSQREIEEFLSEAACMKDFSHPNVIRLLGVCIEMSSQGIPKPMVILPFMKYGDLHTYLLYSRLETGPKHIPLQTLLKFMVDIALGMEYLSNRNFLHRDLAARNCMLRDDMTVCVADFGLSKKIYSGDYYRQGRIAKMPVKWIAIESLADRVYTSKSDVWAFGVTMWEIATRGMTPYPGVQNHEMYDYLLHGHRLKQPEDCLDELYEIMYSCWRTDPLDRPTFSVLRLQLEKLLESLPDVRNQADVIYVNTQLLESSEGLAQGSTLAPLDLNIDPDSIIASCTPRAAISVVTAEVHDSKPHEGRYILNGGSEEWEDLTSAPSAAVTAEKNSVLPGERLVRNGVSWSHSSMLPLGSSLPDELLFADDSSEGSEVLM
Chain of Human KDR (residues 790-1356) (P35968 790-1356): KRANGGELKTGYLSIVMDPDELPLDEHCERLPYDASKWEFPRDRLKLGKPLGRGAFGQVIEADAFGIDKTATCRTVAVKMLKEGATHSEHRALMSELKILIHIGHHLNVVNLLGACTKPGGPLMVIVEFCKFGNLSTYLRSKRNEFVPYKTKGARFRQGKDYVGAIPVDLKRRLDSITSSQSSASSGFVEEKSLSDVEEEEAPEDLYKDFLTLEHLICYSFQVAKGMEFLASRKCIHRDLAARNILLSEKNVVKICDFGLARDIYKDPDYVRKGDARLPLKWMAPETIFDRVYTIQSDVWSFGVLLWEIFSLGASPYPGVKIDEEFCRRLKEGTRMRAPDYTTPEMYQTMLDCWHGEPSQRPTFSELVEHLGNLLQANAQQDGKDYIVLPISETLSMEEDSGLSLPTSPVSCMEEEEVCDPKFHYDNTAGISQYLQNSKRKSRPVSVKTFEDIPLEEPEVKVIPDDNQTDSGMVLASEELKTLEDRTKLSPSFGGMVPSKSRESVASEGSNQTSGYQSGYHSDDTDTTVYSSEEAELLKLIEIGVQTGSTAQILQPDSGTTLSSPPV
Chain of Mer (phospho-Mer, MERTK-transfected 293A cells) (Q12866 21-999): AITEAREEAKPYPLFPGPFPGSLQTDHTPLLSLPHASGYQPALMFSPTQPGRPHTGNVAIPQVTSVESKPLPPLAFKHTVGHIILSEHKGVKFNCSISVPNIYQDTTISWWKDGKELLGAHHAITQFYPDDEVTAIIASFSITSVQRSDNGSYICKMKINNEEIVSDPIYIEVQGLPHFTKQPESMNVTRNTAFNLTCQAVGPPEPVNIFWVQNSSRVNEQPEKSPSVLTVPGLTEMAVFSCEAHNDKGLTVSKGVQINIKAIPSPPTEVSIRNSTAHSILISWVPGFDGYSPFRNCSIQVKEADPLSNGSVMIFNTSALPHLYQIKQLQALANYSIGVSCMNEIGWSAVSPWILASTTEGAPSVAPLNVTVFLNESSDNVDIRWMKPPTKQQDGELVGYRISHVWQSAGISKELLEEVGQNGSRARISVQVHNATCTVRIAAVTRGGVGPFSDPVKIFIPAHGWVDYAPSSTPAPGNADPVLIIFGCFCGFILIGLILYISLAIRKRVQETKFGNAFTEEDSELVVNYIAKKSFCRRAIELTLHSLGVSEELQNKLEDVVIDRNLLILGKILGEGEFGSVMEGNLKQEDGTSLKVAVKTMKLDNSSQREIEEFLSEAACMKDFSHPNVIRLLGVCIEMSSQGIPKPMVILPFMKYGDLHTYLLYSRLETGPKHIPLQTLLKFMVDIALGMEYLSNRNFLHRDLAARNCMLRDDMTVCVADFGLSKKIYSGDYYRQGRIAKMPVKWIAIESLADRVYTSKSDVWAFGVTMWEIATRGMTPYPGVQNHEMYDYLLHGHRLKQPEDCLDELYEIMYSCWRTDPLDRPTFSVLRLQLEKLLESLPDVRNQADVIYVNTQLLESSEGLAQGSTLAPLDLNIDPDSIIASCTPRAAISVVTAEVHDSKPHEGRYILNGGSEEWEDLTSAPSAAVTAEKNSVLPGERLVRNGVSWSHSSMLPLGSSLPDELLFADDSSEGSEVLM

| SMILES | IC50 [1, 7] [nM] | IC50 [2] [nM] | IC50 [3, 8] [nM] | IC50 [4, 9] [nM] | IC50 [5] [nM] | IC50 [6] [nM] | IC50 ([1]; protocol of Example D-2) [nM] | IC50 ([3]; protocol of Example C-2) [nM] | IC50 ([4]; protocol of Example B-2) [nM] |
| --- | --- | --- | --- | --- | --- | --- | --- | --- | --- |
| COc1cc2nccc(Oc3ccc(NC(=O)c4cnc(C(F)(F)F)c(-c5ccc(F)cc5)c4O)cc3F)c2nc1OC [Compound 79, N-[4-[(6,7-Dimethoxy-1,5-naphthyridin-4-yl)oxy]-3-fluorophenyl]-5-(4-fluorophenyl)-4-hydroxy-6-(trifluoromethyl)pyridine-3-carboxamide] | 100 to 300 | < 100 | < 100 | > 300 | 100 to 300 | – | – | – | – |
| COc1cc2nccc(Oc3ccc(NC(=O)c4cn(-c5ccccn5)cc(-c5ccc(F)cc5)c4=O)cc3F)c2nc1OC [Compound 124, N-[4-[(6,7-Dimethoxy-1,5-naphthyridin-4-yl)oxy]-3-fluorophenyl]-5-(4-fluorophenyl)-4-oxo-1-pyridin-2-ylpyridine-3-carboxamide] | < 100 | < 100 | < 100 | > 300 | < 100 | – | – | – | – |
| COc1cc2nccc(Oc3ccc(NC(=O)c4cn(-c5cnn(C)c5)c(C)c(-c5ccc(F)cc5)c4=O)cc3)c2nc1OC [Compound 141, N-[4-[(6,7-Dimethoxy-1,5-naphthyridin-4-yl)oxy]phenyl]-5-(4-fluorophenyl)-6-methyl-1-(1-methylpyrazol-4-yl)-4-oxopyridine-3-carboxamide] | < 100 | < 100 | < 100 | > 300 | < 100 | – | – | – | – |
| Cc1ncc(C(=O)Nc2ccc(Oc3ccnc4cc(Br)cnc34)cc2)c(O)c1-c1ccc(F)cc1 [Compound 149, N-[4-[(7-Bromo-1,5-naphthyridin-4-yl)oxy]phenyl]-5-(4-fluorophenyl)-4-hydroxy-6-methylpyridine-3-carboxamide] | < 100 | < 100 | < 100 | 100 to 300 | < 100 | – | – | – | – |
| Cc1ncc(C(=O)Nc2ccc(Oc3ccnc4cc(F)cnc34)c(F)c2)c(O)c1-c1ccc(F)cc1 [Compound 160, N-[3-Fluoro-4-[(7-fluoro-1,5-naphthyridin-4-yl)oxy]phenyl]-5-(4-fluorophenyl)-4-hydroxy-6-methylpyridine-3-carboxamide] | < 100 | – | < 100 | < 100 | < 100 | < 100 | – | – | – |
| COc1cnc2c(Oc3ccc(NC(=O)c4cn(C(C)(C)C)c(C)c(-c5ccc(F)cc5)c4=O)cc3)ccnc2c1 [Compound 165, 1-tert-Butyl-5-(4-fluorophenyl)-N-[4-[(7-methoxy-1,5-naphthyridin-4-yl)oxy]phenyl]-6-methyl-4-oxopyridine-3-carboxamide] | < 100 | < 100 | < 100 | > 300 | – | – | – | – | – |
| COc1cc2nccc(Oc3ccc(NC(=O)c4c(C)n(C)cc(-c5ccc(F)cc5)c4=O)cc3)c2nc1OC [Compound 238, N-[4-[(6,7-Dimethoxy-1,5-naphthyridin-4-yl)oxy]phenyl]-5-(4-fluorophenyl)-1,2-dimethyl-4-oxopyridine-3-carboxamide] | < 100 | < 100 | < 100 | > 300 | < 100 | – | – | – | – |
| COc1cnc2c(Oc3ccc(NC(=O)c4c(C)ncn(-c5ccc(F)cc5)c4=O)cc3)ccnc2c1 [Compound 255, 1-(4-Fluorophenyl)-N-[4-[(7-methoxy-1,5-naphthyridin-4-yl)oxy]phenyl]-4-methyl-6-oxopyrimidine-5-carboxamide] | 100 to 300 | < 100 | < 100 | > 300 | 100 to 300 | – | – | – | – |
| COc1cc2nccc(Oc3ccc(NC(=O)c4cc(Br)c(C)n(-c5ccc(F)cc5)c4=O)cc3F)c2nc1OC [Compound 366, 5-bromo-N-[4-[(6,7-dimethoxy-1,5-naphthyridin-4-yl)oxy]-3-fluorophenyl]-1-(4-fluorophenyl)-6-methyl-2-oxopyridine-3-carboxamide] | 100 to 300 | < 100 | < 100 | 100 to 300 | < 100 | – | – | – | – |

Results, then the compound that gave them:

| IC50 [1, 7] [nM] | IC50 [2] [nM] | IC50 [3, 8] [nM] | IC50 [4, 9] [nM] | IC50 [5] [nM] | IC50 [6] [nM] | IC50 ([1]; protocol of Example D-2) [nM] | IC50 ([3]; protocol of Example C-2) [nM] | IC50 ([4]; protocol of Example B-2) [nM] | SMILES |
| --- | --- | --- | --- | --- | --- | --- | --- | --- | --- |
| – | 100 to 300 | – | – | – | < 100 | < 100 | 100 to 300 | > 300 | Cc1ccc2nccc(Oc3ccc(NC(=O)c4c(C)nc(C)c(-c5ccc(F)cc5C)c4O)cc3)c2n1 [Compound 507, 5-(4-fluoro-2-methylphenyl)-4-hydroxy-2,6-dimethyl-N-[4-[(6-methyl-1,5-naphthyridin-4-yl)oxy]phenyl]pyridine-3-carboxamide] |
| – | – | – | – | – | – | > 300 | < 100 | > 300 | COc1nc2c(Oc3ccc(NC(=O)c4cnc(C)c(-c5ccc(F)cc5)c4O)cc3F)ccnc2cc1C(C)C [Compound 590, N-[3-Fluoro-4-[(6-methoxy-7-propan-2-yl-1,5-naphthyridin-4-yl)oxy]phenyl]-5-(4-fluorophenyl)-4-hydroxy-6-methylpyridine-3-carboxamide] |
| – | – | – | – | – | – | > 300 | 100 to 300 | > 300 | COc1nc2c(Oc3ccc(NC(=O)c4cnc(C)c(-c5ccc(F)cc5C)c4O)cc3F)ccnc2cc1C(C)C [Compound 591, N-[3-Fluoro-4-[(6-methoxy-7-propan-2-yl-1,5-naphthyridin-4-yl)oxy]phenyl]-5-(4-fluoro-2-methylphenyl)-4-hydroxy-6-methylpyridine-3-carboxamide] |
| – | – | – | – | – | – | > 300 | < 100 | > 300 | COc1nc2c(Oc3ccc(NC(=O)c4c(C)nc(C)c(-c5ccc(F)cc5)c4O)cc3F)ccnc2cc1C(C)C [Compound 592, N-[3-Fluoro-4-[(6-methoxy-7-propan-2-yl-1,5-naphthyridin-4-yl)oxy]phenyl]-5-(4-fluorophenyl)-4-hydroxy-2,6-dimethylpyridine-3-carboxamide] |
| – | – | – | – | – | 100 to 300 | 100 to 300 | > 300 | > 300 | Cc1cc(F)ccc1-c1c(C)ncc(C(=O)Nc2ccc(Oc3ccnc4cc(C(C)C)cnc34)cc2)c1O [Compound 597, 5-(4-Fluoro-2-methylphenyl)-4-hydroxy-6-methyl-N-[4-[(7-propan-2-yl-1,5-naphthyridin-4-yl)oxy]phenyl]pyridine-3-carboxamide] |
| – | 100 to 300 | – | – | – | 100 to 300 | < 100 | < 100 | > 300 | COc1cnc2c(Oc3ccc(NC(=O)c4cn(CCO)c(C)c(-c5ccc(F)cc5)c4=O)cc3F)ccnc2c1 [Compound 621, N-[3-Fluoro-4-[(7-methoxy-1,5-naphthyridin-4-yl)oxy]phenyl]-5-(4-fluorophenyl)-1-(2-hydroxyethyl)-6-methyl-4-oxopyridine-3-carboxamide] |

Source: patent publication US12371428B2 (Exelixis, Inc., priority 2019, dated 2025)
